Measurements taken from patent US5506102A (priority 1993, dated 1996).

What was measured:
human estrogen receptor [1] = experiment: ER transcriptional activity on C3-LUC (complement C3 promoter), CV-1 cells, with PR-A; format: cell-based; settings: PR-A co-expressed, CV-1, FIG. 14B
Experimental: (§1) The experimental protocols and data calculation are as described in FIG. 11 with the exception that the MMTV-ERE-LUC reporter plasmid was replaced with either the ERE-TK-LUC or C3-LUC reporters plasmids. The experiment detailed above is representative of several independent assays. Each measurement was performed in triplicate.
(§2) The experimental protocols and data calculation are as described in Example 8 with the exception that the MMTV-ERE-LUC reporter plasmid was replaced with either ERE-TK-LUC or C3-LUC.

human estrogen receptor [2] = experiment: ER transcriptional activity on MMTV-ERE-LUC, CV-1 cells, ER co-expressed with PR-A; format: cell-based
Experimental: All values were normalized for transfection efficiency by simultaneous estimation of luciferase and β-galactocidase activities. The relative luciferase activity is calculated by dividing the normalized luciferase value at a given point by that obtained in the absence of transfected receptor or ligand. Data shown represent the mean +/- the average deviation from the mean of triplicate estimations.
Experimental protocols and data calculation are as described in FIG. 11. The experiment detailed above is representative of independent assays (N>3). Data shown represent the mean +/- the average deviation from the mean of triplicate estimations.
Vegeto et al., supra. Cells were plated into 96-well tissue culture plates. The vector DNA was introduced into the CV-1 cells using calcium phosphate coprecipitation as described herein. More specifically, 20 μg of DNA/ml of transfection buffer were used in each transfection. Each transfection mix included 0.5 μg of pRST7hER, 9.5 μg of MMTV-ERE-LUC, 5 μg of pCH110, (which contains the gene for β-galactosidase) as an internal control and 5 μg of PGEM4 DNA as a carrier. Depending on the experiment, 0.1 μg pSVhPR-A or pSVhPR-B and an amount of pSVXV2neo (Dr. Bert O'Malley, Baylor College of Medicine) to bring the total amount of DNA to 20 μg was added. The concentration of pXVhPR-A vector chosen was determined by performing the experiment at several different concentrations of vector, and then using that concentration that was optimal for transcriptional readout. The concentration of pSVhPR-B vector was chosen based upon the amount required to give an identical amount of immunoreactive PR-A and PR-B. After transfections using a Biomek 1000 automated laboratory workstation, the cells were incubated with the precipitate for 6 hours. Cells were washed with PBS and incubated for 40 hours with or without hormones as indicated. Cell extracts were prepared as previously described herein and assayed for luciferase (LUC) and β-galactosidase activities. The Normalized LUC activity was calculated by dividing the raw luciferase (×10^4) units for each point by the β-galactosidase activity [(OD415 nm ×10^5)/time min.] at that point.

[3] = test system: primate uterus and oviducts; settings: cited from earlier work
human estrogen receptor [4] = experiment: ER transcriptional activity on ERE-TK-LUC, CV-1 cells, with PR-A; format: cell-based; settings: PR-A co-expressed, CV-1, FIG. 14A
Experimental: as §1, §2

ER = ER transcriptional activity on MMTV-ERE-LUC in HepG2 and HS578T cells; format: cell-based; settings: data not shown

SMILES: CC#C[C@]1(O)CC[C@H]2[C@@H]3CCC4=CC(=O)CCC4=C3[C@@H](c3ccc(N(C)C)cc3)C[C@@]21C [RU486, 11β-(4-dimethylaminophenyl)-17β-hydroxy-17α-(1-propynyl)-4,9-estradien-3-one]
- suppression of ER mediated activation of complement C3 promoter (human estrogen receptor [1]): effectively suppressed
- activity in oviducts ([3]; oviducts of the same animal (primate)): only manifests anti-progestenic activity
- suppression of ER mediated activation of ERE-TK promoter (human estrogen receptor [4]): effectively suppressed
- anti-estrogenic activity (ER; HS578T cells): both anti-progestins functioned as anti-estrogens
- anti-estrogenic activity (ER; HepG2 cells): neither anti-progestin exhibited any anti-estrogenic activity
